{"source": "patent US10370378B2", "about": "“Treatment of sleep disorders” (Evotec International GmbH, priority 2007, dated 2019)", "key": {"α1β2γ2 GABAA receptors": {"biological_target": "T1, α1β2γ2 GABAA receptors (Rattus norvegicus, UniProt P18508+P62813)", "T1 construct": "expressed in transfected cells; host or cells: Xenopus laevis oocytes, cRNA microinjection", "T1 sequence (P62813 28-455)": "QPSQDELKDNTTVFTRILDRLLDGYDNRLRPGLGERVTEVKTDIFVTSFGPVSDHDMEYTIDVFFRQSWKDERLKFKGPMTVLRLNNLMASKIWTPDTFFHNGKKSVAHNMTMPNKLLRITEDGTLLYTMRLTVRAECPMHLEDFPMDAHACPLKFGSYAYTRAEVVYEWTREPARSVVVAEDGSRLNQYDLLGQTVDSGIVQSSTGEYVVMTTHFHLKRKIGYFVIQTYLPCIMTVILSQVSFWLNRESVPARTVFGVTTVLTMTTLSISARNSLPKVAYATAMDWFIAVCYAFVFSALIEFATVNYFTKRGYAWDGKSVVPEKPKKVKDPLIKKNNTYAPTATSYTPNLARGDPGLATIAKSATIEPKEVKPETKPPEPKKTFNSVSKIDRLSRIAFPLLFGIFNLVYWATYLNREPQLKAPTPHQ", "T1 sequence (P63138 25-474 partner limits assumed)": "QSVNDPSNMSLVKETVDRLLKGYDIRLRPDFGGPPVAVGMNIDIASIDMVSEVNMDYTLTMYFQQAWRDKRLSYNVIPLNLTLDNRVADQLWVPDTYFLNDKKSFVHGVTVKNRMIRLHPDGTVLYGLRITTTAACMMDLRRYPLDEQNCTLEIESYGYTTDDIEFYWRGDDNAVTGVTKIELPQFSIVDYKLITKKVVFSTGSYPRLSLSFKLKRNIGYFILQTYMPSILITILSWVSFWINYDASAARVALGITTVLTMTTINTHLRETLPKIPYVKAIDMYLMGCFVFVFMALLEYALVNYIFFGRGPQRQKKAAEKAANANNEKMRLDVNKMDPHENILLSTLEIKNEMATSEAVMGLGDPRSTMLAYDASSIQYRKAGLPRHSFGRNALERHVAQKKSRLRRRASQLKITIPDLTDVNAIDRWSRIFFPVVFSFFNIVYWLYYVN", "T1 sequence (P18508 39-466)": "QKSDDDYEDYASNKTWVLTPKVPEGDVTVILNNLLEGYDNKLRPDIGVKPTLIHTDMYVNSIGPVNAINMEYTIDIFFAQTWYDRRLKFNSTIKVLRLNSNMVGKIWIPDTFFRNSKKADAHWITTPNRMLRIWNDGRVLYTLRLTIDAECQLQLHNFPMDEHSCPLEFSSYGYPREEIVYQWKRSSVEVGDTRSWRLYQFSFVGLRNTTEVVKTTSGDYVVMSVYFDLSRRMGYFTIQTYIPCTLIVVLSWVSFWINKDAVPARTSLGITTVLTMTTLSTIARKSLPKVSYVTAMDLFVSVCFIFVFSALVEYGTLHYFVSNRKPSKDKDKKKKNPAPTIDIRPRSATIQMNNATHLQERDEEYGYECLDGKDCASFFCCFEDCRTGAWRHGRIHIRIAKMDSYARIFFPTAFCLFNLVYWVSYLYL", "test": "Stimulation of currents elicited by GABA (EC3-5), two-electrode voltage clamp, receptors expressed in Xenopus oocytes", "assay_type": "cell-based", "text": "(§1) 7-Chloro-3-(5-dimethylaminomethyl-[1,2,4]oxadiazol-3-yl)-5-methyl-4,5-dihydro-imidazol[1,5,-a][1,4]benzodiazepine-6-one was used to test the effects of the compound of formula (II): […]\n(§2) Similar procedures were chosen as for the investigation of other GABAA receptor subunit specific substances (e.g., Baur et al., 2005; Mol. Pharmacol. 68, 787-792).\n(§3) Lobes of the ovary containing the follicles were obtained by surgical procedures from female Xenopus laevis. Follicles were singled out using a platinum loop. Fifty nL of cRNA solution at a ratio of αx:β2:γ2 of 1:1:5 (3.3-10 nM αx (x=1, 2, 3, 5); 3.3-10 nM β2; 16.7-50 nM γ2) (Boileau et al., 2002; Neuropharmacology 43, 695-700) were microinjected into Xenopus follicles. Several hours after microinjection the follicles were freed of follicular layers and adhering connective tissue by a collagenase/hypertonic shock procedure (Sigel, 1987; J. Physiol. (Land) 386, 73-90). Oocytes were kept at constant 18° C. until measurement (1-4 days) in a modified Barth solution (88 mM NaCl, 1 mM KCl, 2.4 mM NaHCO3, 10 mM Hepes-NaOH (pH 7.5), 0.82 mM MgSO4×7H2O, 0.34 mM Ca(NO3)2×4H2O, 0.41 mM CaCl2×2H2O, 100 U Penicillin/mL, 100 μg Streptomycin/mL, sterile filtered).\n(§4) Currents were measured using a home-built amplifier in combination with a xy-recorder or were digitized using a MacLab/200 (AD Instruments) and stored on a computer. Xenopus oocytes were voltage clamped using the two-electrode voltage clamp technique (electrode resistance about 0.8 MΩ) at −80 mV. The medium contained 90 mM NaCl, 1 mM KCl, 1 mM MgCl2, 1 mM CaCl2, 10 mM Na-Hepes (pH 7.4) and 0.5% DMSO.\nGABA was applied for 20-50 seconds without or in combination with other drugs and a washout period of 4 minutes was allowed to ensure full recovery from desensitization, which was experimentally determined. The perfusion solution (6 mL/min) was applied through a glass capillary with an inner diameter of 1.35 mm, the mouth of which was placed about 0.4 mm from the surface of the oocyte. The rate of solution change under our conditions has been estimated 70% within less than 0.5 s (Sigel et al., 1990; Neuron 5, 703-711). The entire perfusion system and the assay chamber were cleaned between drug applications by washing with DMSO.\nData is given as mean±SD, except in the figures where data is shown for clarity as mean±SEM. Current stimulation was calculated as follows: stimulation (%)=((I(GABA+modulator)−I(GABA))/I(GABA))×100%, where I is the current amplitude. Where indicated, the stimulation was standardized to the stimulation by 1 μM diazepam (100%). To obtain FIGS. 1-4, values for current stimulation obtained at a given concentration of modulator at a given subunit combination were averaged. The data points were fitted with the equation stimulation=efficacy/(1+(potency/concentration of modulator)). The values given in the Tables (Summary) are obtained by fitting individual curves and subsequently averaging efficacy and potency. […]\nGABA was then applied in combination with various concentrations of the compound of formula (II) between 0.3 nM and 3,000 nM to produce a cumulative concentration response curve. […] In each batch of oocytes the stimulation by 1 μM diazepam was determined in five oocytes, extent of stimulation averaged and defined as 100%. Where indicated, stimulation by the compound of formula (II) in each batch of oocytes was expressed as a percentage of this value in the corresponding batch. […]"}, "α2β2γ2 GABAA receptors": {"biological_target": "T2, α2β2γ2 GABAA receptors (Rattus norvegicus, UniProt P18508+P23576)", "T2 construct": "expressed in transfected cells; host or cells: Xenopus laevis oocytes, cRNA microinjection", "T2 sequence (P23576 29-451)": "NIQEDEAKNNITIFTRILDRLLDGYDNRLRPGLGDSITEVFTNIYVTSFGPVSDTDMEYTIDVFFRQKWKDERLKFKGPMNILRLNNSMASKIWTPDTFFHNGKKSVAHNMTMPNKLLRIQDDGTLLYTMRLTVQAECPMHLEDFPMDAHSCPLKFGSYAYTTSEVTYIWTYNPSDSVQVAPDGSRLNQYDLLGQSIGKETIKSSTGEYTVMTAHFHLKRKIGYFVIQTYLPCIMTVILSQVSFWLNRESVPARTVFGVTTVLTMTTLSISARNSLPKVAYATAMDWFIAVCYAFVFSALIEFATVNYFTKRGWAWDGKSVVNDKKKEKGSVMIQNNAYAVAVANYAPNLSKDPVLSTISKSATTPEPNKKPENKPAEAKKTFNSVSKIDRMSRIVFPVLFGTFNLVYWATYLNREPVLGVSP", "T2 sequence (P63138 25-474 partner limits assumed)": "as the sequence (P63138 25-474 partner limits assumed) above", "T2 sequence (P18508 39-466)": "as the sequence (P18508 39-466) above", "test": "Stimulation of currents elicited by GABA (EC3-5), two-electrode voltage clamp, receptors expressed in Xenopus oocytes", "assay_type": "cell-based", "details": "1 μM; different batches of oocytes, n=5 each", "text": "as §1, §2, §3\nas §4, with “The medium contained 90 mM NaCl, 1 mM KCl, 1 mM MgCl2, 1 mM CaCl2, 10 mM Na-Hepes (pH 7.4) and 0.5% DMSO.” left out\n(§5) GABA was applied for 20-50 seconds without or in combination with other drugs and a washout period of 4 minutes was allowed to ensure full recovery from desensitization, which was experimentally determined. […]\n(§6) Data is given as mean±SD, except in the figures where data is shown for clarity as mean±SEM. Current stimulation was calculated as follows: stimulation (%)=((I(GABA+modulator)−I(GABA))/I(GABA))×100%, where I is the current amplitude. […]\n(§7) Current stimulation by diazepam was determined in each batch of oocytes as follows. […]"}, "α3β2γ2 GABAA receptors": {"biological_target": "T3, α3β2γ2 GABAA receptors (Rattus norvegicus, UniProt P18508+P20236)", "T3 construct": "expressed in transfected cells; host or cells: Xenopus laevis oocytes, cRNA microinjection", "T3 sequence (P20236 29-493)": "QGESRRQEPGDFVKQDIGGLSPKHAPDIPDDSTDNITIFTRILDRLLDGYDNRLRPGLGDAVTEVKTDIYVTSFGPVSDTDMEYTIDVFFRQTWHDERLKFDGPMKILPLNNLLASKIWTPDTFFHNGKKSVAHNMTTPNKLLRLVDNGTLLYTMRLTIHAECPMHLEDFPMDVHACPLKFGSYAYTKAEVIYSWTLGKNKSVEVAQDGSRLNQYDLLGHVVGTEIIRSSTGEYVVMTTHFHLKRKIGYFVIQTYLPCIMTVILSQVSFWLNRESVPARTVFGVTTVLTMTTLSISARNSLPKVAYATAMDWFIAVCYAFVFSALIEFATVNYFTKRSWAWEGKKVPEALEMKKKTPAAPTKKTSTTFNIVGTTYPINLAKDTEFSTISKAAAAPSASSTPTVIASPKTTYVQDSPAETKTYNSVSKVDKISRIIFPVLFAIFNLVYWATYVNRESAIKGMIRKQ", "T3 sequence (P63138 25-474 partner limits assumed)": "as the sequence (P63138 25-474 partner limits assumed) above", "T3 sequence (P18508 39-466)": "as the sequence (P18508 39-466) above", "test": "Stimulation of currents elicited by GABA (EC3-5), two-electrode voltage clamp, receptors expressed in Xenopus oocytes", "assay_type": "cell-based", "details": "1 μM; different batches of oocytes, n=5 each", "text": "as §1, §2, §3\nas §4, with “The medium contained 90 mM NaCl, 1 mM KCl, 1 mM MgCl2, 1 mM CaCl2, 10 mM Na-Hepes (pH 7.4) and 0.5% DMSO.” left out\nas §5, §6, §7"}, "α5β2γ2 GABAA receptors": {"biological_target": "T4, α5β2γ2 GABAA receptors (Rattus norvegicus, UniProt P18508+P19969)", "T4 construct": "expressed in transfected cells; host or cells: Xenopus laevis oocytes, cRNA microinjection", "T4 sequence (P19969 32-464 limits assumed)": "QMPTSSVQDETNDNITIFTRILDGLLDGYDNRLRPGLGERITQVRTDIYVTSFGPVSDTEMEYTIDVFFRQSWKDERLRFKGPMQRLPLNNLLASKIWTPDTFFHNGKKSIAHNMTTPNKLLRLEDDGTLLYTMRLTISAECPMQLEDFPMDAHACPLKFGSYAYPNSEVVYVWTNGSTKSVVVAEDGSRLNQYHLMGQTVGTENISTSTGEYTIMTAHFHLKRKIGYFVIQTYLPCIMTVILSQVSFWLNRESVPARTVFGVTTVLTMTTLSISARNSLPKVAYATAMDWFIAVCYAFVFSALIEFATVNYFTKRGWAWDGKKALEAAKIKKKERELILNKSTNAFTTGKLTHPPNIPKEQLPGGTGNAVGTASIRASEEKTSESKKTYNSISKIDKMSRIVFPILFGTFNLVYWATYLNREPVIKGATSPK", "T4 sequence (P63138 25-474 partner limits assumed)": "as the sequence (P63138 25-474 partner limits assumed) above", "T4 sequence (P18508 39-466)": "as the sequence (P18508 39-466) above", "test": "Stimulation of currents elicited by GABA (EC3-5), two-electrode voltage clamp, receptors expressed in Xenopus oocytes", "assay_type": "cell-based", "details": "1 μM; different batches of oocytes, n=5 each", "text": "as §1, §2, §3\nas §4, with “The medium contained 90 mM NaCl, 1 mM KCl, 1 mM MgCl2, 1 mM CaCl2, 10 mM Na-Hepes (pH 7.4) and 0.5% DMSO.” left out\nas §5, §6, §7"}, "[1]": {"details": "elderly; cited from earlier work"}, "GABAA receptors": {"system": "GABAA receptors", "details": "20 mg, PET, in man; cited from earlier work"}}, "note": "“And” between values parts separate entries of the source, which are not always exact repeats. Identical values can stand only once.", "data": [{"compound": "CN1C(=O)CN=C(c2ccccc2)c2cc(Cl)ccc21", "note": "[diazepam]", "values": [{"measurement": "Current stimulation", "setting": "α1β2γ2 GABAA receptors; 1 μM, different batches of oocytes, n=5 each", "result": "223±28% and 178±20%"}, {"measurement": "Current stimulation", "setting": "α2β2γ2 GABAA receptors", "result": "264±61% and 280±71% and 318±62%"}, {"measurement": "Current stimulation", "setting": "α3β2γ2 GABAA receptors", "result": "417±85% and 417±144%"}, {"measurement": "Current stimulation", "setting": "α5β2γ2 GABAA receptors", "result": "237±97% and 160±4%"}]}, {"compound": "CN1CCN(C(=O)O[C@H]2c3nccnc3C(=O)N2c2ccc(Cl)cn2)CC1", "note": "[eszopiclone]", "values": [{"measurement": "half-life", "setting": "[1]", "result": 9, "unit": "h"}]}, {"compound": "Cc1ccc(-c2nc3ccc(C)cn3c2CC(=O)N(C)C)cc1", "note": "[zolpidem]", "values": [{"measurement": "Receptor subtype affinity in comparison to α2β2γ2, α3β2γ2 and α5β2γ2", "setting": "α1β2γ2 GABAA receptors", "result": "higher affinity at α1β2γ2 GABAA receptors"}, {"measurement": "Intrinsic activity / type of allosteric modulation", "setting": "α1β2γ2 GABAA receptors; GABAA receptor benzodiazepine site", "result": "full agonist"}, {"measurement": "receptor occupancy", "setting": "GABAA receptors", "result": "about 20%"}]}]}
